Where only a bound is given, the exact number is not on record here.

In the experiment the test system is recurrent herpes genitalis (herpes virus). The experiment in a line: Randomized, double-blind vehicle-controlled clinical study of resiquimod gel formulations topically applied to herpetic lesions of the external genitalia. It is filed as in vivo, human. Particulars: topical, patients with recurrent herpes genitalis, 6 month observation period. As to the method:
Propylene glycol (700 g) and resiquimod (4-amino-2-ethoxymethyl-α,α-dimethyl-1H-imidazo[4,5-c]quinoline-1-ethanol, 1.4 g) were added to a 1000 mL glass beaker. The resulting mixture was heated (about 55° C.) with stirring until all of the resiquimod was dissolved. The resulting solution was added to the mixing bowl of a ROSS LDM-4 mixer. Triacetin (11,968.7 g) was added to the mixing bowl and the resulting mixture was mixed for 10 minutes at 36 rpm. Colloidal silicon dioxide (1,330.0 g, AEROSIL®200 from Degussa, Frankfurt, Germany) was added in five parts. After each addition the resulting mixture was mixed at ambient pressure for 1 to 2 minutes at 36 rpm and then under vacuum (18 inches of Hg below ambient pressure, […]) for about 9 minutes at 36 rpm. The sides of the mixing bowl and the mixing blades were scraped. The formulation was mixed under vacuum (17 inches of Hg below ambient pressure, […]) for about 10 minutes at 36 rpm. The resulting gel contained 0.01% resiquimod, 5.0% propylene glycol, 9.5% colloidal silicon dioxide, and 85.49% triacetin.
Using the method described above, a second formulation was prepared by combining 7.0 g of resiquimod, 700.0 g of propylene glycol, 11963.0 g of triacetin and 1,330.0 g of colloidal silicon dioxide. The resulting gel contained 0.05% resiquimod, 5.0% propylene glycol, 9.5% colloidal silicon dioxide, and 85.45% triacetin.
A randomized, double-blind vehicle (placebo)-controlled study was performed to evaluate single and multi-weekly doses of the resiquimod formulations prepared above topically applied to herpetic lesions on the skin of the external genitalia.
52 otherwise healthy patients (20 to 60 years of age, inclusive) with a history of recurrent herpes genitalis (≧6 episodes per year) participated in the study. […] After passing screening, patients were enrolled into a 12-week eligibility period to qualify for treatment by virtue of experiencing a herpetic recurrence. During the eligibility period patients' qualified for the treatment period by coming to the study site for treatment visit one within 24 hours of a recurrence. At this visit patients were stratified by sex and enrolled sequentially into an active treatment or vehicle treatment regimen.
The treatment period began with the first treatment visit and ended with the final treatment visit. The treatment groups were 0.05 percent resiquimod containing formulation or formulation alone (vehicle) 1×/week for 4 weeks; 0.05 percent resiquimod containing formulation or formulation alone 2×/week for 3 weeks; 0.01 percent resiquimod formulation or formulation alone 2×/week for 3 weeks; or 0.01 percent resiquimod formulation or formulation alone 3×/week for 3 weeks. […]

With `CCOCc1nc2c(N)nc3ccccc3c2n1CC(C)(C)O` [Resiquimod, 4-amino-α,α-dimethyl-2-ethoxymethyl-1H-imidazo[4,5-c]quinoline-1-ethanol], the “Median No. Days to Recurrence after treatment cessation” value by setting is: (0.01% resiquimod gel, 2×/wk, 3 weeks) 172.5 days; (0.01% resiquimod gel, 3×/wk, 3 weeks) above 195 days; (0.05% resiquimod gel, 1×/wk, 4 weeks) above 60 days; (0.05% resiquimod gel, 2×/wk, 3 weeks) 105 days.

These data come from patent US20020147210A1, “Methods for delaying recurrence of herpes virus symptoms” (3M Innovative Properties Company, priority 2000, published 2002).
